What was measured:
[1] = tested on: bedstraw; assay: Test B pre/postemergence bedstraw; format: in vivo, Galium aparine; settings: for Bedstraw plant response rating: Postemergence; for Plant response rating, Bedstraw: Preemergence
Outline: (§1)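 Test chemicals in a non-phytotoxic solvent mixture with surfactant were sprayed preemergence onto planted seeds and postemergence onto plants 2 to 18 cm tall (1- to 4-leaf stage). After twelve to sixteen days in a greenhouse, injury was visually rated against untreated controls from 0 (no effect) to 10 (complete control).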

[2] = tested on: blackgrass; assay: Test B pre/postemergence blackgrass; format: in vivo, Alopecurus myosuroides
Outline: as §1

[3] = tested on: surinam grass; assay: Test B pre/postemergence surinam grass; format: in vivo, Brachiaria decumbens
Outline: as §1

[4] = tested on: cocklebur; assay: Test B pre/postemergence cocklebur; format: in vivo, Xanthium strumarium
Outline: as §1

[5] = tested on: corn; assay: Test B pre/postemergence corn; format: in vivo, Zea mays
Outline: as §1

[6] = tested on: giant foxtail; assay: Test B pre/postemergence giant foxtail; format: in vivo, Setaria faberii
Outline: as §1

[7] = tested on: morningglory; assay: Test B pre/postemergence morningglory; format: in vivo, Ipomoea hederacea
Outline: as §1

[8] = tested on: pigweed; assay: Test B pre/postemergence pigweed; format: in vivo, Amaranthus retroflexus
Outline: as §1

[9] = tested on: rape; assay: Test B pre/postemergence rape; format: in vivo, Brassica napus
Outline: as §1

[10] = tested on: soybean; assay: Test B pre/postemergence soybean; format: in vivo, Glycine max
Outline: as §1

[11] = tested on: sugar beet; assay: Test B pre/postemergence sugar beet; format: in vivo, Beta vulgaris
Outline: as §1

[12] = tested on: velvetleaf; assay: Test B pre/postemergence velvetleaf; format: in vivo, Abutilon theophrasti
Outline: as §1

[13] = tested on: purple nutsedge; assay: Test B pre/postemergence purple nutsedge; format: in vivo, Cyperus rotundus
Outline: as §1

[14] = tested on: smallflower flatsedge; assay: Test B flood test smallflower flatsedge; format: in vivo, Cyperus difformis
Outline: (§2)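 Each value is a visual injury score relative to controls, with 10 meaning complete control and 0 no effect. Evaluation took place twelve to sixteen days after the 2-leaf-stage plants were treated and kept in the greenhouse.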

[15] = tested on: duck salad; assay: Test B flood test duck salad; format: in vivo, Heteranthera limosa
Outline: as §2

[16] = tested on: bamyardgrass; assay: Test B flood test barnyardgrass; format: in vivo, Echinochloa crus-galli
Outline: as §2

[17] = Rate 62 g/ha, scale 0 to 10, 0 is no effect, 10 is complete control
[18] = Postemergence, Rate 62 g/ha, scale 0 to 10, 0 is no effect, 10 is complete control
[19] = Postemergence, Rate 250 g/ha, scale 0 to 10, 0 no effect, 10 complete control
[20] = Preemergence, Rate 62 g/ha, scale 0 to 10, 0 is no effect, 10 is complete control
[21] = Preemergence, Rate 125 g/ha, scale 0 to 10 (0 no effect, 10 complete control)
[22] = Preemergence, Rate 250 g/ha, scale of 0 to 10 where 0 is no effect and 10 is complete control
[23] = Preemergence, Rate 500 g/ha, scale 0 (no effect) to 10 (complete control)
[24] = Rate 125 g/ha, Postemergence, scale 0 to 10, 0 no effect, 10 complete control
[25] = Rate 500 g/ha, Postemergence, 0 to 10 scale (0 no effect, 10 complete control)
[26] = Rate 125 g/ha, Postemergence section (flood test species), scale 0 to 10, 0 no effect, 10 complete control
[27] = flood test, listed under Postemergence, Rate 250 g/ha, scale 0 to 10, 0 no effect, 10 complete control
[28] = Rate 500 g/ha, Postemergence section of Table B, 0 to 10 scale (0 no effect, 10 complete control)

Cc1c(Cl)cccc1-n1c(=O)on(C(=O)N(c2ccc(F)cc2)C(C)C)c1=O [Compound 21]
Bedstraw plant response rating [1, 17]: 0
Bedstraw plant response rating ([1]; Rate 250 g/ha, scale 0 to 10, 0 no effect, 10 complete control): 0
Plant response rating, Bedstraw [1, 17]: 0
Plant response rating, Bedstraw ([1]; Rate 125 g/ha, scale 0 to 10 (0 no effect, 10 complete control)): 0
Plant response rating, Bedstraw ([1]; Rate 250 g/ha, scale of 0 to 10 where 0 is no effect and 10 is complete control): 0
Bedstraw plant response rating ([1]; Rate 125 g/ha, scale 0 to 10, 0 no effect, 10 complete control): 0
Bedstraw plant response rating ([1]; Rate 500 g/ha, 0 to 10 scale (0 no effect, 10 complete control)): 6
Blackgrass plant response rating [2, 18]: 0
Blackgrass plant response rating [2, 19]: 0
Plant response rating, Blackgrass [2, 20]: 0
Plant response rating, Blackgrass [2, 21]: 0
Plant response rating, Blackgrass [2, 22]: 0
Blackgrass plant response rating [2, 23]: 0
Blackgrass plant response rating [2, 24]: 0
Blackgrass plant response rating [2, 25]: 0
B. signalgrass plant response rating [3, 18]: 0
B. signalgrass plant response rating [3, 19]: 0
Plant response rating, B. signalgrass [3, 20]: 0
Plant response rating, B. signalgrass [3, 21]: 0
Plant response rating, B. signalgrass [3, 22]: 0
B. signalgrass plant response rating [3, 23]: 0
B. signalgrass plant response rating [3, 24]: 0
B. signalgrass plant response rating [3, 25]: 0
Cocklebur plant response rating [4, 18]: 0
Cocklebur plant response rating [4, 19]: 5
Plant response rating, Cocklebur [4, 20]: 0
Plant response rating, Cocklebur [4, 21]: 0
Plant response rating, Cocklebur [4, 22]: 0
Cocklebur plant response rating [4, 23]: 0
Cocklebur plant response rating [4, 24]: 0
Cocklebur plant response rating [4, 25]: 7
Corn plant response rating [5, 18]: 0
Corn plant response rating [5, 19]: 0
Plant response rating, Corn [5, 20]: 0
Plant response rating, Corn [5, 21]: 0
Plant response rating, Corn [5, 22]: 0
Corn plant response rating [5, 23]: 0
Corn plant response rating [5, 24]: 0
Corn plant response rating [5, 25]: 3
Giant foxtail plant response rating [6, 18]: 0
Giant foxtail plant response rating [6, 19]: 0
Plant response rating, Giant foxtail [6, 20]: 8
Plant response rating, Giant foxtail [6, 21]: 8
Plant response rating, Giant foxtail [6, 22]: 8
Giant foxtail plant response rating [6, 23]: 9
Giant foxtail plant response rating [6, 24]: 0
Giant foxtail plant response rating [6, 25]: 2
Morningglory plant response rating [7, 18]: 2
Morningglory plant response rating [7, 19]: 2
Plant response rating, Morningglory [7, 20]: 0
Plant response rating, Morningglory [7, 21]: 0
Plant response rating, Morningglory [7, 22]: 2
Morningglory plant response rating [7, 23]: 2
Morningglory plant response rating [7, 24]: 2
Morningglory plant response rating [7, 25]: 8
Redroot pigweed plant response rating [8, 18]: 0
Redroot pigweed plant response rating [8, 19]: 0
Plant response rating, Redroot pigweed [8, 20]: 6
Plant response rating, Redroot pigweed [8, 21]: 6
Plant response rating, Redroot pigweed [8, 22]: 6
Redroot pigweed plant response rating [8, 23]: 8
Redroot pigweed plant response rating [8, 24]: 0
Redroot pigweed plant response rating [8, 25]: 0
Rape plant response rating [9, 18]: 0
Rape plant response rating [9, 19]: 0
Plant response rating, Rape [9, 20]: 0
Plant response rating, Rape [9, 21]: 0
Plant response rating, Rape [9, 22]: 0
Rape plant response rating [9, 23]: 0
Rape plant response rating [9, 24]: 0
Rape plant response rating [9, 25]: 0
Soybean plant response rating [10, 18]: 2
Soybean plant response rating [10, 19]: 2
Plant response rating, Soybean [10, 20]: 0
Plant response rating, Soybean [10, 21]: 0
Plant response rating, Soybean [10, 22]: 0
Soybean plant response rating [10, 23]: 0
Soybean plant response rating [10, 24]: 2
Sugarbeets plant response rating [11, 18]: 0
Sugarbeets plant response rating [11, 19]: 0
Plant response rating, Sugarbeets [11, 20]: 0
Plant response rating, Sugarbeets [11, 21]: 0
Plant response rating, Sugarbeets [11, 22]: 3
Sugarbeets plant response rating [11, 23]: 8
Sugarbeets plant response rating [11, 24]: 0
Velvetleaf plant response rating [12, 18]: 0
Velvetleaf plant response rating [12, 19]: 0
Plant response rating, Velvetleaf [12, 20]: 0
Plant response rating, Velvetleaf [12, 21]: 0
Plant response rating, Velvetleaf [12, 22]: 0
Velvetleaf plant response rating [12, 23]: 0
Velvetleaf plant response rating [12, 24]: 0
Nutsedge plant response rating [13, 18]: 0
Nutsedge plant response rating [13, 19]: 0
Plant response rating, Nutsedge [13, 20]: 0
Plant response rating, Nutsedge [13, 21]: 0
Plant response rating, Nutsedge [13, 22]: 0
Nutsedge plant response rating [13, 23]: 0
Nutsedge plant response rating [13, 24]: 0
Nutsedge plant response rating [13, 25]: 0
S. Flatsedge plant response rating [14, 18]: 0
S. Flatsedge plant response rating [14, 26]: 0
S. Flatsedge plant response rating [14, 27]: 0
Ducksalad plant response rating [15, 18]: 0
Ducksalad plant response rating [15, 26]: 0
Ducksalad plant response rating [15, 28]: 0
Ducksalad plant response rating [15, 27]: 0
Barnyardgrass plant response rating [16, 18]: 0
Barnyardgrass plant response rating [16, 26]: 0
Barnyardgrass plant response rating [16, 28]: 0
Barnyardgrass plant response rating [16, 27]: 0

— US6737383B1, “Herbicidal oxadiazolidines” (priority 1999, dated 2004)
